Like-named read-outs stand apart in the source and are kept apart here. Values belong to the compound of their own block, whether it stands above or below them.
Assays:
Bovine brain tubulin [1] = experiment: Inhibition of [3H]colchicine binding to tubulin; conditions: 1.0 μM tubulin, 5.0 μM [3H]colchicine, mean ±SD
[2] = test system: MDA MB-231 human breast cancer cells; experiment: Antiproliferative assay; assay type: cell-based; conditions: for GI50: read-out: GI50 MDA MB-231
[3] = test system: DU-145 human prostate cancer cells; experiment: Antiproliferative assay; assay type: cell-based; conditions: for GI50: read-out: GI50 DU-145; for Fold less active than 20b: DU-145 and MDA MB-231
Bovine brain tubulin [4] = experiment: Inhibition of tubulin assembly; assay type: biochemical; conditions: read-out: Tubulin assembly IC50; 10 μM tubulin; mean ±SD of at least two determinations
Lung HOP-62 [5] = experiment: NCI-60 cell line assay, Lung HOP-62; assay type: cell-based; conditions: Homo sapiens, HOP-62, read-out: GI50 Lung HOP-62
Ovarian OVCAR-3 [6] = experiment: NCI-60 cell line assay, Ovarian OVCAR-3; assay type: cell-based; conditions: Homo sapiens, OVCAR-3, read-out: GI50 Ovarian OVCAR-3
Colon HCT-116 [7] = experiment: NCI-60 cell line assay, Colon HCT-116; assay type: cell-based; conditions: Homo sapiens, HCT-116, read-out: GI50 Colon HCT-116
NCI 60-cell line panel [8] = experiment: NCI-60 cell line assay, mean over all 60 cell lines; assay type: cell-based; conditions: for MGM: mean concentration that caused 50% growth inhibition in all 60 cell lines
Renal SN12-C [9] = experiment: NCI-60 cell line assay, Renal SN12-C; assay type: cell-based; conditions: Homo sapiens, SN12C, read-out: GI50 Renal SN12-C
Melanoma UACC-62 [10] = experiment: NCI-60 cell line assay, Melanoma UACC-62; assay type: cell-based; conditions: Homo sapiens, UACC-62, read-out: GI50 Melanoma UACC-62
[11] = test system: various cancer lines in sealed polyvinylidine fluoride fibres implanted i.p. or s.c.; experiment: NCI hollow fibre assay; conditions: mice; for Hollow fibre assay score (maximum 96): total score
Bovine brain tubulin [12] = conditions: 1.0 μM tubulin, 5.0 μM [3H]colchicine, mean ±SD; cited from earlier work
Melanoma UACC-62 [13] = conditions: read-out: GI50 Melanoma UACC-62; NCI-60 panel; cited from earlier work
Renal SN12-C [14] = conditions: read-out: GI50 Renal SN12-C; NCI-60 panel; cited from earlier work
NCI 60-cell line panel [15] = conditions: mean concentration that caused 50% growth inhibition in all 60 cell lines; cited from earlier work
Ovarian OVCAR-3 [16] = conditions: read-out: GI50 Ovarian OVCAR-3; NCI-60 panel; cited from earlier work
Lung HOP-62 [17] = conditions: read-out: GI50 Lung HOP-62; NCI-60 panel; cited from earlier work
CNS SF-539 = conditions: read-out: GI50 CNS SF-539; NCI-60 panel; cited from earlier work
Colon HCT-116 [18] = conditions: read-out: GI50 Colon HCT-116; NCI-60 panel; cited from earlier work
[19] = mean of three determinations, 96 h

GI50 ([2]; Homo sapiens, MDA-MB-231, 96 h): 77600 nM
GI50 ([3]; Homo sapiens, DU-145, 96 h): > 100000 nM
Compound: COc1cc2c(cc1OC)CN(Cc1cc(OC)c(OC)c(OC)c1)CC2 [Compound 17a, 6,7-Dimethoxy-2-(3,4,5-trimethoxybenzyl)-1,2,3,4-tetrahydroisoquinoline]
Fold less active than 3a ([2]; MDA MB-231): 120 fold

GI50 ([2]; Homo sapiens, MDA-MB-231, 96 h): > 100000 nM
GI50 ([3]; Homo sapiens, DU-145, 96 h): > 100000 nM
Compound: COc1cc(CN2CCc3cc(OS(N)(=O)=O)ccc3C2)cc(OC)c1OC [Compound 20d, 6-Sulfamoyloxy-2-(3,4,5-trimethoxybenzyl)-1,2,3,4-tetrahydroisoquinoline]

GI50 ([2]; Homo sapiens, MDA-MB-231, 96 h): > 100000 nM
GI50 ([3]; Homo sapiens, DU-145, 96 h): > 100000 nM
Compound: COc1cc(CN2CCc3cc(OCc4ccccc4)ccc3C2)cc(OC)c1OC [Compound 20a, 6-Benzyloxy-2-(3,4,5-trimethoxybenzyl)-1,2,3,4-tetrahydroisoquinoline]

Colchicine binding Inhibition at 5 μM inhibitor (Bovine brain tubulin [1]): 73±3%
GI50 ([2]; Homo sapiens, MDA-MB-231, 96 h): 227 nM
GI50 ([3]; Homo sapiens, DU-145, 96 h): 151 nM
IC50 (Bovine brain tubulin [4]): 1600 ± 100 nM
Compound: COc1cc(CN2CCc3cc(O)ccc3C2)cc(OC)c1OC [Compound 20b, 6-Hydroxy-2-(3,4,5-trimethoxybenzyl)-1,2,3,4-tetrahydroisoquinoline]
GI50 (Lung HOP-62 [5]): 62 nM
GI50 (Ovarian OVCAR-3 [6]): 19 nM
GI50 (Colon HCT-116 [7]): 35 nM
MGM (NCI 60-cell line panel [8]): 0.045 µM
GI50 (Renal SN12-C [9]): 49 nM
GI50 (Melanoma UACC-62 [10]): 49 nM

GI50 ([2]; Homo sapiens, MDA-MB-231, 96 h): 74000 nM
GI50 ([3]; Homo sapiens, DU-145, 96 h): 86000 nM
Compound: COc1cc(CN2CCc3cc(O)ccc3C2)cc(Cl)c1OC [Compound 20e, 2-(3-Chloro-4,5-dimethoxybenzyl)-6-hydroxy-1,2,3,4-tetrahydroisoquinoline]
Fold less active than 20b [3]: 100- to 600 fold

GI50 ([2]; Homo sapiens, MDA-MB-231, 96 h): 188 nM
GI50 ([3]; Homo sapiens, DU-145, 96 h): 220 nM
Compound: COc1cc2c(cc1OS(C)(=O)=O)CCN(Cc1cc(OC)c(OC)c(OC)c1)C2 [Compound 17c, 7-Methoxy-6-methanesulfonyloxy-2-(3,4,5-trimethoxybenzyl)-1,2,3,4-tetrahydroisoquinoline]

GI50 ([2]; Homo sapiens, MDA-MB-231, 96 h): > 100000 nM
GI50 ([3]; Homo sapiens, DU-145, 96 h): > 100000 nM
Compound: COc1cc(CCN2CCc3cc(O)ccc3C2)cc(OC)c1OC [Compound 20j, 6-Hydroxy-2-(3,4,5-trimethoxyphenethyl)-1,2,3,4-tetrahydroisoquinoline]

GI50 ([2]; Homo sapiens, MDA-MB-231, 96 h): 25000 nM
GI50 ([3]; Homo sapiens, DU-145, 96 h): 35000 nM
Compound: COc1cc(CN2CCc3cc(O)ccc3C2)cc(Br)c1OC [Compound 20f, 2-(3-Bromo-4,5-dimethoxybenzyl)-6-hydroxy-1,2,3,4-tetrahydroisoquinoline]

GI50 ([2]; Homo sapiens, MDA-MB-231, 96 h): 4890 nM
GI50 ([3]; Homo sapiens, DU-145, 96 h): 31000 nM
Compound: COc1ccc2c(c1)CCN(Cc1cc(OC)c(OC)c(OC)c1)C2 [Compound 20c, 6-Methoxy-2-(3,4,5-trimethoxybenzyl)-1,2,3,4-tetrahydroisoquinoline]
Fold less active than 20b [3]: 20- to 200 fold

GI50 ([2]; Homo sapiens, MDA-MB-231, 96 h): > 100000 nM
GI50 ([3]; Homo sapiens, DU-145, 96 h): > 100000 nM
Compound: CCOc1cc(CN2CCc3cc(O)ccc3C2)cc(OCC)c1OCC [Compound 20h, 6-Hydroxy-2-(3,4,5-triethoxybenzyl)-1,2,3,4-tetrahydroisoquinoline]

GI50 ([2]; Homo sapiens, MDA-MB-231, 96 h): > 100000 nM
GI50 ([3]; Homo sapiens, DU-145, 96 h): > 100000 nM
Compound: CCOc1c(OC)cc(CN2CCc3cc(O)ccc3C2)cc1OC [Compound 20g, 2-(3,5-Dimethoxy-4-ethoxybenzyl)-6-hydroxy-1,2,3,4-tetrahydroisoquinoline]

GI50 ([2]; Homo sapiens, MDA-MB-231, 96 h): > 100000 nM
GI50 ([3]; Homo sapiens, DU-145, 96 h): > 100000 nM
Compound: COc1cc(C(=O)N2CCc3cc(O)ccc3C2)cc(OC)c1OC [Compound 20i, 6-Hydroxy-2-(3,4,5-trimethoxybenzoyl)-1,2,3,4-tetrahydroisoquinoline]

The remaining lines, values behind:

Compound: COc1cc2c(cc1OS(N)(=O)=O)CC(C)N(Cc1cc(Br)c(OC)c(OC)c1)C2 (racemic) [Compound 12j, (±)-2-(3-Bromo-4,5-dimethoxybenzyl)-7-methoxy-3-methyl-6-sulfamoyloxy-1,2,3,4-tetrahydroisoquinoline]
Colchicine binding Inhibition at 5 μM inhibitor (Bovine brain tubulin [1]): 50 ±4%
GI50 [2, 19]: 40 nM
GI50 [3, 19]: 50 nM
IC50 (Bovine brain tubulin [4]): 2400 ± 200 nM

Compound: COc1cc2c(cc1OS(N)(=O)=O)CCN(Cc1cc(Cl)c(OC)c(OC)c1)C2 [Compound 12e, 2-(3-Chloro-4,5-dimethoxybenzyl)-7-methoxy-6-sulfamoyloxy-1,2,3,4-tetrahydroisoquinoline]
Colchicine binding Inhibition at 5 μM inhibitor (Bovine brain tubulin [1]): 32 ±3%
GI50 (Lung HOP-62 [5]): 56 nM
GI50 (Ovarian OVCAR-3 [6]): 20 nM
GI50 (Colon HCT-116 [7]): 39 nM
MGM values (NCI 60-cell line panel [8]; NCI 60-cell line assay, stated in abstract): ~40 nM
MGM (NCI 60-cell line panel [8]): 0.039 µM
GI50 (Renal SN12-C [9]): 66 nM
GI50 (Melanoma UACC-62 [10]): 25 nM
Increase in antiproliferative activity relative to 4a ([3]; DU-145): 8- to 10 fold
IC50 (Bovine brain tubulin [4]): 5600 ± 700 nM

Compound: COc1cc2c(cc1OC(C)=O)CCN(Cc1cc(OC)c(OC)c(OC)c1)C2 [Compound 17b, 6-Acetoxy-7-methoxy-2-(3,4,5-trimethoxybenzyl)-1,2,3,4-tetrahydroisoquinoline]
GI50 ([2]; Homo sapiens, MDA-MB-231, 96 h): 340 nM
GI50 ([3]; Homo sapiens, DU-145, 96 h): 407 nM

Compound: COc1cc2c(cc1O)CCN(Cc1cc(Cl)c(OC)c(OC)c1)C2 [Compound 11e, 2-(3-Chloro-4,5-dimethoxybenzyl)-6-hydroxy-7-methoxy-1,2,3,4-tetrahydroisoquinoline]
GI50 (Lung HOP-62 [5]): 869 nM
GI50 (Ovarian OVCAR-3 [6]): 187 nM
GI50 (Colon HCT-116 [7]): 474 nM
MGM (NCI 60-cell line panel [8]): 0.501 µM
GI50 (Renal SN12-C [9]): 910 nM
GI50 (Melanoma UACC-62 [10]): 350 nM

Compound: CCc1cc(CN2CCc3cc(OS(N)(=O)=O)c(OC)cc3C2)cc(CC)c1CC [Compound 12i, 7-Methoxy-6-sulfamoyloxy-2-(3,4,5-triethylbenzyl)-1,2,3,4-tetra-hydroisoquinoline]
GI50 (Lung HOP-62 [5]): 2450 nM
GI50 (Ovarian OVCAR-3 [6]): 209 nM
GI50 (Colon HCT-116 [7]): 1050 nM
MGM (NCI 60-cell line panel [8]): 1.17 µM
GI50 (Renal SN12-C [9]): 5290 nM
GI50 (Melanoma UACC-62 [10]): 592 nM

Compound: CCc1cc2c(cc1O)CCN(Cc1cc(Br)c(OC)c(OC)c1)C2 [Compound 14, 2-(3-Bromo-4,5-dimethoxybenzyl)-7-ethyl-6-hydroxy-1,2,3,4-tetrahydroisoquinoline]
GI50 ([2]; Homo sapiens, MDA-MB-231, 96 h): 400 nM
GI50 ([3]; Homo sapiens, DU-145, 96 h): 1200 nM

Compound: CCc1cc2c(cc1OS(N)(=O)=O)CCN(Cc1cc(Br)c(OC)c(OC)c1)C2 [Compound 15, 2-(3-Bromo-4,5-dimethoxybenzyl)-7-ethyl-6-sulfamoyloxy-1,2,3,4-tetrahydroisoquinoline]
Colchicine binding Inhibition at 5 μM inhibitor (Bovine brain tubulin [1]): 78±2%
GI50 ([2]; Homo sapiens, MDA-MB-231, 96 h): 30 nM
GI50 ([3]; Homo sapiens, DU-145, 96 h): 20 nM
IC50 (Bovine brain tubulin [4]): 1800 ± 40 nM

Compound: COc1cc2c(cc1O)CCN(Cc1cc(Br)c(OC)c(OC)c1)C2 [Compound 11f, 2-(3-Bromo-4,5-dimethoxybenzyl)-6-hydroxy-7-methoxy-1,2,3,4-tetrahydroisoquinoline]
GI50 (Lung HOP-62 [5]): 353 nM
GI50 (Ovarian OVCAR-3 [6]): 74 nM
GI50 (Colon HCT-116 [7]): 143 nM
Hollow fibre assay score (maximum 96) ([11]; dosed i.p. at 150 mg/kg): 2
MGM (NCI 60-cell line panel [8]): 0.38 µM
GI50 (Renal SN12-C [9]): 768 nM
GI50 (Melanoma UACC-62 [10]): 305 nM

Compound: COc1cc2c(cc1OS(N)(=O)=O)CCN(Cc1cc(Br)c(OC)c(OC)c1)C2 [Compound 12f, 2-(3-Bromo-4,5-dimethoxybenzyl)-7-methoxy-6-sulfamoyloxy-1,2,3,4-tetrahydroisoquinoline]
Colchicine binding Inhibition at 5 μM inhibitor (Bovine brain tubulin [1]): 45 ±0.6%
GI50 (Lung HOP-62 [5]): 80 nM
GI50 (Ovarian OVCAR-3 [6]): 18 nM
GI50 (Colon HCT-116 [7]): 38 nM
Hollow fibre assay score for i.p. fibres ([11]; dosed i.p. at 75 mg/kg): 16
Hollow fibre assay score for s.c. fibres ([11]; dosed i.p. at 75 mg/kg): 18
Hollow fibre assay score (maximum 96) ([11]; dosed i.p. at 75 mg/kg): 34
MGM (NCI 60-cell line panel [8]): 0.044 µM
GI50 (Renal SN12-C [9]): 55 nM
GI50 (Melanoma UACC-62 [10]): 28 nM
IC50 (Bovine brain tubulin [4]): 2400 ± 400 nM

Compound: COc1ccc(/C=C\c2cc(OC)c(OC)c(OC)c2)cc1O [CA-4, combretastatin A-4]
Colchicine binding Inhibition at 5 μM inhibitor (Bovine brain tubulin [12]): 98 ±0.7%

Compound: COc1cc2c(cc1OS(N)(=O)=O)CC[C@@H]1[C@@H]2CC[C@]2(C)[C@@H](OS(N)(=O)=O)CC[C@@H]12 [Compound 1a, 2-methoxyestradiol-3,17-O,O-bis-sulfamate]
GI50 (Melanoma UACC-62 [13]): < 10 nM
GI50 (Renal SN12-C [14]): 126 nM
MGM (NCI 60-cell line panel [15]): 0.087 µM
GI50 (Ovarian OVCAR-3 [16]): < 10 nM
GI50 (Lung HOP-62 [17]): 51 nM
GI50 (CNS SF-539): 36 nM
GI50 (Colon HCT-116 [18]): 45 nM

Compound: COc1cc2c(cc1O)CC(C)N(Cc1cc(Br)c(OC)c(OC)c1)C2 (racemic) [Compound 11j, (±)-2-(3-Bromo-4,5-dimethoxybenzyl)-6-hydroxy-7-methoxy-3-methyl-1,2,3,4-tetrahydroisoquinoline]
GI50 [2, 19]: 300 nM
GI50 [3, 19]: 400 nM

Reference: PMC4145847 (ChemMedChem, 2014)
